This passage reports IC50 and Activity results from ChEMBL document CHEMBL3120056 (Eur J Med Chem, 2014).

The source made the active and inactive calls. No cut-off for these calls is given here.

Holding throughout (assay type): cell-based
The target of assay [1] is T1, Somatostatin receptor type 2 (Homo sapiens, UniProt P30874). The assay is described as follows: Displacement of [125I]-[LTT]-SS28 from human SST2 receptor expressed in Chinese hamster CCL-39 cells after 2 hrs by autoradiographic analysis. Background: In a radioligand displacement assay an active substance lowers the binding of a labelled ligand.
For assay [2], the target named is Somatostatin receptor type 1 (Homo sapiens, UniProt P30872). In words: Displacement of [125I]-[LTT]-SS28 from human SST1 receptor expressed in CHO cells after 2 hrs by autoradiographic analysis.
For assay [3], the target named is Somatostatin receptor type 4 (Homo sapiens, UniProt P31391). The assay is described as follows: Displacement of [125I]-[LTT]-SS28 from human SST4 receptor expressed in Chinese hamster CCL-39 cells after 2 hrs by autoradiographic analysis.
For assay [4], the target named is Somatostatin receptor type 5 (Homo sapiens, UniProt P35346). In words: Displacement of [125I]-[LTT]-SS28 from human SST5 receptor expressed in HEK293 cells after 2 hrs by autoradiographic analysis.
In assay [5] the target is T1, Somatostatin receptor type 2. In words: Agonist activity at T7-epitope-tagged human SST2A receptor expressed in HEK293 cells assessed as stimulation of receptor internalization at 1 uM after 30 mins by immunofluorescence microscopic analysis.
Assay [6] deals with Somatostatin receptor type 3 (Homo sapiens, UniProt P32745). In words: Displacement of [125I]-[LTT]-SS28 from human SST3 receptor expressed in Chinese hamster CCL-39 cells after 2 hrs by autoradiographic analysis.
Somatostatin receptor type 3, sequence (P32745 whole entry): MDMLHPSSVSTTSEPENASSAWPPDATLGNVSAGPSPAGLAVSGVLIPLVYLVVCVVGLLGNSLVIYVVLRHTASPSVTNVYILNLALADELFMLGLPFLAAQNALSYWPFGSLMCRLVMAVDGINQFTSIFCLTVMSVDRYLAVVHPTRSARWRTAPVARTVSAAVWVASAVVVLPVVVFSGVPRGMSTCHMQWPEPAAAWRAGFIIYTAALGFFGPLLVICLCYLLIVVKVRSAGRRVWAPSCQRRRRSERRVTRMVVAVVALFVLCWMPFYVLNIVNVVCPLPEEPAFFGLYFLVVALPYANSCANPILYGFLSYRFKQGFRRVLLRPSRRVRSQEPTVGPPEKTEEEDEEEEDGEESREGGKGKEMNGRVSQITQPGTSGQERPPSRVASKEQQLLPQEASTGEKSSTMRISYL

Somatostatin receptor type 4, sequence (P31391 whole entry): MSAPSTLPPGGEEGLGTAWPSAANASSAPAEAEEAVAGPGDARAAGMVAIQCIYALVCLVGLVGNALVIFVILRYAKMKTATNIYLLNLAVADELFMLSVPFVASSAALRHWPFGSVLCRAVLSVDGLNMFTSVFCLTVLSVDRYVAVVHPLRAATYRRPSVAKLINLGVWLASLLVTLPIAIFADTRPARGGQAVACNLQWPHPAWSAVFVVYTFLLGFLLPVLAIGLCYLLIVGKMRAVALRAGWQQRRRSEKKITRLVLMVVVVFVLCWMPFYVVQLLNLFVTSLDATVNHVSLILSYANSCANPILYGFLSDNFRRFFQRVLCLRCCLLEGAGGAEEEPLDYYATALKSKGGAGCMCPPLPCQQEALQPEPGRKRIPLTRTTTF
T1 sequence (P30874 whole entry): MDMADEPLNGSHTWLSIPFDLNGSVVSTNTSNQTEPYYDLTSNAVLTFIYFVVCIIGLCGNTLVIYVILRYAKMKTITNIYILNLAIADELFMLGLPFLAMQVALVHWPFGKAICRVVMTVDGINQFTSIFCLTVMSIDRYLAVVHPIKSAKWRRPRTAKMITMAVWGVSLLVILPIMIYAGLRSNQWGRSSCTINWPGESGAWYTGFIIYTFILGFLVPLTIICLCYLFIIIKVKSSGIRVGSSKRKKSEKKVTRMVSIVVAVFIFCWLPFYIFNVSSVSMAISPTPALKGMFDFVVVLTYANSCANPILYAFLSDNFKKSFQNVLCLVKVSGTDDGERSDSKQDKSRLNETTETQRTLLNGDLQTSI
Somatostatin receptor type 1, sequence (P30872 whole entry): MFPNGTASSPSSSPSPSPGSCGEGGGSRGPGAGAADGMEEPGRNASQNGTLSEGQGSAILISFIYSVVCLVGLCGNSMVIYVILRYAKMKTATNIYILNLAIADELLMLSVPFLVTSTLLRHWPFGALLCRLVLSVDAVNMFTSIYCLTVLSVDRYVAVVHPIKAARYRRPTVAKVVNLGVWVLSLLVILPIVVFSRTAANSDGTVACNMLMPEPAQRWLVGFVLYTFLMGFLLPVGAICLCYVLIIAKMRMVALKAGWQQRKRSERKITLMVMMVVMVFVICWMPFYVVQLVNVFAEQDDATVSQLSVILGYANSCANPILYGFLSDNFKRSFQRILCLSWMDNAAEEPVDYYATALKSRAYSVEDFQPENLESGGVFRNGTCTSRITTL
Somatostatin receptor type 5, sequence (P35346 whole entry): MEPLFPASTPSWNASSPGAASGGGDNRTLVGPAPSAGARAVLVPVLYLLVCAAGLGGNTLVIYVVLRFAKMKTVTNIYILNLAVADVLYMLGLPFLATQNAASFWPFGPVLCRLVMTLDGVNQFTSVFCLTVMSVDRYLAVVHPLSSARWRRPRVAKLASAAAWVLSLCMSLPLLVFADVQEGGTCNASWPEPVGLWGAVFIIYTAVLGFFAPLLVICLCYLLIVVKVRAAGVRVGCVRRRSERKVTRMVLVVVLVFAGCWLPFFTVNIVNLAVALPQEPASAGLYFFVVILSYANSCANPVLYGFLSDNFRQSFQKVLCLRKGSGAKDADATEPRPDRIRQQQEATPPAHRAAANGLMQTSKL

`CCCC[C@H](NC(=O)CNC(=O)[C@H](C)NC(=O)CN1CCN(CC(=O)O)CCN(CC(=O)O)CCN(CC(=O)O)CC1)C(=O)N[C@@H](CCCCN)C(=O)N[C@@H]1CSSC[C@@H](C(=O)N[C@@H](CO)C(=O)NCC(=O)O)NC(=O)[C@H](Cc2ccccc2)NC(=O)[C@H]([C@@H](C)O)NC(=O)[C@H](CCCCN)NC(=O)[C@@H](Cc2c[nH]c3ccccc23)NC(=O)[C@H](Cc2ccccc2)NC(=O)[C@H](Cc2ccccc2)NC1=O`: the IC50 (usually the concentration that gives 50% inhibition) in assay [1] came to 0.05 µM; in assay [2] it was 0.018 µM; in assay [3], 0.0054 µM; in assay [4], 0.037 µM; in assay [6] it was 0.098 µM. The result in assay [5] was inactive.

On to `C[C@@H](O)[C@@H]1NC(=O)[C@H](CCCCN)NC(=O)[C@@H](Cc2c[nH]c3ccccc23)NC(=O)[C@H](Cc2ccccc2)NC(=O)[C@H](Cc2ccccc2)NC(=O)[C@@H](NC(=O)[C@H](CCCNC(=N)N)NC(=O)COCCOCCNC(=O)CN2CCN(CC(=O)O)CCN(CC(=O)O)CCN(CC(=O)O)CC2)CSSC[C@@H](C(=O)O)NC(=O)[C@H](CO)NC(=O)[C@H](Cc2ccccc2)NC1=O`, for which the IC50 in assay [1] worked out at 0.00076 µM; in assay [2], 0.171 µM; in assay [3], 0.0009 µM; in assay [4], 0.016 µM; in assay [6], 0.024 µM. The outcome in assay [5] was Active.

On to `C[C@@H](O)[C@@H]1NC(=O)[C@H](CCCCN)NC(=O)[C@@H](Cc2c[nH]c3ccccc23)NC(=O)[C@H](Cc2ccccc2)NC(=O)[C@H](Cc2ccccc2)NC(=O)[C@@H](NC(=O)CNC(=O)COCCOCCNC(=O)CN2CCN(CC(=O)O)CCN(CC(=O)O)CCN(CC(=O)O)CC2)CSSC[C@@H](C(=O)O)NC(=O)[C@H](CO)NC(=O)[C@H](Cc2ccccc2)NC1=O`, for which the IC50 in assay [1] stood at 0.001 µM; in assay [2] it was 0.795 µM; in assay [3], 0.0012 µM; in assay [4], 0.058 µM; in assay [6], 0.018 µM. The outcome in assay [5] was Active.

`CCCC[C@H](NC(=O)CNC(=O)[C@H](C)NC(=O)CN1CCN(CC(=O)O)CCN(CC(=O)O)CCN(CC(=O)O)CC1)C(=O)N[C@@H](CCCCN)C(=O)N[C@@H](CC(N)=O)C(=O)N[C@H]1CSSC[C@@H](C(=O)N[C@H](C(=O)N[C@@H](CO)C(=O)NCC(=O)O)[C@@H](C)O)NC(=O)[C@H]([C@@H](C)O)NC(=O)[C@H](CCCCN)NC(=O)[C@@H](Cc2c[nH]c3ccccc23)NC(=O)[C@H](Cc2ccccc2)NC1=O`: the IC50 in assay [1], in assay [2], in assay [3], in assay [4] and in assay [6] was over 1 µM in each case. Also, the outcome in assay [5] was inactive.

In the case of `C[C@H](NC(=O)CN1CCN(CC(=O)O)CCN(CC(=O)O)CCN(CC(=O)O)CC1)C(=O)NCC(=O)N[C@H]1CSSC[C@H](C(=O)O)NC(=O)[C@H](CO)NC(=O)[C@H]([C@@H](C)O)NC(=O)[C@H](Cc2ccccc2)NC(=O)[C@H]([C@@H](C)O)NC(=O)[C@H](CCCCN)NC(=O)[C@@H](Cc2c[nH]c3ccccc23)NC(=O)[C@H](Cc2ccccc2)NC(=O)[C@H](Cc2ccccc2)NC(=O)[C@H](CC(N)=O)NC(=O)[C@H](CCCNC(=N)N)NC1=O`, the half-maximal inhibitory concentration (IC50) in assay [1] worked out at 0.0016 µM; in assay [2] it was 0.038 µM; in assay [3], 0.0028 µM; in assay [4] it was 0.025 µM; in assay [6], 0.016 µM. In addition, the outcome in assay [5] was Active.

On to `CCCC[C@H](NC(=O)CNC(=O)[C@H](C)NC(=O)CN1CCN(CC(=O)O)CCN(CC(=O)O)CCN(CC(=O)O)CC1)C(=O)N[C@@H](CCCCN)C(=O)N[C@@H](CC(N)=O)C(=O)N[C@H]1CSSC[C@@H](C(=O)N[C@H](C(=O)N[C@@H](CO)C(=O)NCC(=O)O)[C@@H](C)O)NC(=O)[C@H]([C@@H](C)O)NC(=O)[C@H](CCCCN)NC(=O)[C@@H](Cc2c[nH]c3ccccc23)NC(=O)[C@H](Cc2ccc(O)cc2)NC1=O`, for which the IC50 in assay [1] is 0.946 µM; in assay [2] it was over 1 µM; in assay [3], over 1 µM; in assay [4] it was over 1 µM; in assay [6] it was over 1 µM. Besides, in assay [5], the result was inactive.

Turning to `CCCC[C@H](NC(=O)CNC(=O)[C@H](C)NC(=O)CN1CCN(CC(=O)O)CCN(CC(=O)O)CCN(CC(=O)O)CC1)C(=O)N[C@@H](CCCCN)C(=O)N[C@H]1CSSC[C@@H](C(=O)N[C@@H](CO)C(=O)NCC(=O)O)NC(=O)[C@H](Cc2ccccc2)NC(=O)[C@H]([C@@H](C)O)NC(=O)[C@H](CCCCN)NC(=O)[C@@H](Cc2c[nH]c3ccccc23)NC(=O)[C@H](Cc2ccccc2)NC(=O)[C@H](Cc2ccccc2)NC1=O`, the half-inhibitory concentration (IC50) amounted to 0.011 µM in assay [1]; 0.033 µM in assay [2]; 0.004 µM in assay [3]; 0.05 µM in assay [4]; 0.016 µM in assay [6]. In addition, the result in assay [5] was Active.
